From US8906953B2, “Pyrrolidine substitute flavones for the treatment of inflammatory disorders” (Piramal Enterprises Limited, priority 2010, dated 2014)

What was measured:
Assay type in all cases: cell-based
[1] = system: IL-6; test: LPS-induced IL-6 release from hPBMCs (ELISA); details: Homo sapiens
Experimental: Cytokine production by lipopolysaccharides (LPS) in hPBMCs (human peripheral blood mononuclear cells) was measured as in reference, Physiol. Res. 2003, 52, 593-598, the disclosure of which is incorporated by reference for the teaching of the assay. Blood was collected from healthy donors into Potassium EDTA vacutainer tubes (BID vacutainer). The PBMC were isolated using gradient centrifugation in Histopaque-1077 solution (Sigma). Isolated PBMC were suspended in RPMI 1640 (Rosewell Park Memorial Institute) culture medium (Sigma-Aldrich Fine Chemicals, USA) containing 10% fetal bovine serum (FBS) (JRH, USA), 100 U/mL penicillin (Sigma Chemical Co. St Louis, Mo., USA) and 100 μg/mL streptomycin (Sigma Chemical Co. St Louis, Mo.). The cell concentration was adjusted to 1×10^6 cells/mL. The viability as determined by trypan blue dye exclusion was uniform Ly≧98%. The cell suspension (100 μL) was added to the wells of a 96-well culture plate. Following cell plating, 79 μL of the culture medium and 1 μL of various concentrations of test compounds (compounds of formula 1) (final concentration 0.001, 0.003, 0.005, 0.01, 0.025, 0.03, 0.05, 0.1, 0.25, 0.3 and 1 μM) dissolved in DMSO (dimethyl sulfoxide, Sigma, Mo., USA) were added to the cells. The final concentration of DMSO was adjusted to 0.5%. The vehicle (0.5% DMSO) was used as control. […]

[2] = system: IL-8; test: Spontaneous IL-8 release from synovial cells of RA patients; details: Homo sapiens, Synovial cell, freshly isolated synovial cells from RA patients, 16 hours
Experimental: Cytokine production in synovial cells obtained from rheumatoid arthritis patients undergoing knee replacement surgery, was measured as per the method described in reference, Lancet, 1989, 29, 244-247, the disclosure of which is incorporated herein by reference for the teaching of the assay. The synovial membrane tissue was digested by incubating at 37° C. for 3 hours in an atmosphere of 5% CO2, in Roswell Park Memorial Institute (RPMI) medium containing penicillin-G (100 U/mL), streptomycin (100 μg/mL), amphotericin B (50 ng/mL) (GIBCO), 1.33 mg/mL collagenase Type I (Worthington Biochemical Corporation, New Jersey, USA), 0.5 μg/mL DNAse Type I (SIGMA) and 8.33 U/mL heparin (Biological E. Limited, India). The digested tissue was then filtered through a membrane (mesh size 70 micron) (SIGMA), the cells were washed 3 times and suspended in complete medium (RPMI supplemented with 5% FCS and 5% human serum). The cell concentration was adjusted to 1×10^6 cells/mL. The viability as determined by trypan blue dye exclusion was uniform Ly≧98%. The cell suspension (100 μL) was added to the wells of a 96-well culture plate. Following cell plating, 100 μL of the culture medium and 1 μL of various concentrations of the compound of example 3 (final concentration 0.001, 0.003, 0.01, 0.03, 0.1, 0.3, 1 and 3 μM) dissolved in DMSO (dimethylsulfoxide, Sigma, Mo., USA) were added to the cells. […]

[3] = system: ICAM-1; test: TNF-α induced cell surface expression of ICAM-1 on HUVECs; details: Homo sapiens, HUVEC; TNF-α (1 ng/mL) stimulated HUVECs, 4 hours, n=2
Experimental: The assay was designed as in reference, Transplantation, 1997, 63(5), 759-764, the disclosure of which is incorporated herein by reference for the teaching of the assay.
Human umbilical vein endothelial cells (HUVECs) were obtained from Cascade Biologics (Oregon-USA). Cells were cultured in M-200 medium (Cascade Biologics) supplemented with low serum growth supplements (LSGS) (Cascade Biologics), penicillin-G (100 U/mL), streptomycin (100 μg/mL) and amphotericin B (50 ng/mL) (GIBCO). […] After TNF-α stimulation (1 ng/mL) (R&D Systems (Minneapolis, Minn.)) for 4 hours at 37° C. in an atmosphere of 5% CO2, supernatants were harvested and assayed for the expression of ICAM-1 (intercellular cell adhesion molecules), whereas the expressions of VCAM-1 (vascular cell adhesion molecules) and E-selectin were evaluated after 6 hours of stimulation. […] To quantitatively measure the amount of cell surface expressions of ICAM-1, VCAM-1 and E-selectin, ELISA assay was performed using anti-ICAM-1 (clone BBIG-I1), anti-VCAM-1 (clone BBIG-V1), anti-E-selectin (clone BBIG-E4) antibodies, isotype control mouse IgG1 (clone 11711.11) and the secondary antibody (anti-mouse IgG-HRP antibody) which were procured from R&D Systems (Minneapolis, Minn., USA). […]

IC50 [1]: 100 nM
IC50 [2]: 3.5 µM
IC50 [3]: 670 nM
Structure (SMILES): CN1CC[C@@H](c2c(O)cc(O)c3c(=O)cc(-c4ccc(C(F)(F)F)cc4Cl)oc23)[C@@H]1CO.Cl [Compound of example 3, (+)-trans-2-(2-Chloro-4-trifluoromethyl-phenyl)-5,7-dihydroxy-8-(2-hydroxymethyl-1-methyl-pyrrolidin-3-yl)-chromen-4-one hydrochloride]
